# Patent publication US20220119367A1, “HETEROCYCLIC COMPOUNDS AS ADENOSINE ANTAGONISTS” (Nuvation Bio Inc., priority 2019, published 2022)
# Experiments:
# [1] = molecular target: T1, HEK-293 cells expressing human recombinant adenosine A2A receptor (Homo sapiens, UniProt P29274); assay: cAMP assay (Assay 2), A2A receptor; format: cell-based; details: HEK-293 cells expressing human A2A receptor
# T1 construct: expressed in transfected cells; host or cells: HEK-293
# Experimental: (§1) The functional activity of compounds was tested using Assay 2 below, to detect the presence of cAMP. Assay 1 is an alternative assay for this purpose. Activation of G-protein coupled receptors (such as A2A) results in activation of adenylyl cyclase which converts ATP into cAMP which is used as a downstream signaling molecule. Molecules which act as GPCR (or specifically A2A receptor) antagonists cause a decrease in intracellular cAMP concentration.
# (§2) Assay 2 (Table B2): This assay used HEK-293 cells expressing human recombinant adenosine A2A receptor (or, alternatively, A1 receptor) that were grown prior to the test in media without antibiotic. 100 nL of test articles at 100× of final concentration were transferred to assay plate by Echo. Cells were washed twice with 5 mL of PBS and 10 μL of cells were mixed with 5 mL PBS. After aspirating the PBS and adding 1.5 mL versine, cells were incubated at 37° C. for 2-5 min. After centrifugation, 4 mL of medium was added and adjusted cell density to 5,000 cells/well with Stimulation Buffer. 10 μL of cells were aliquoted to the assay plate, centrifuged at 1000 rpm for 1 minute, and incubated for 60 minutes at room temperature. 5 μL 4× Eu-cAMP tracer solution and 5 μL 4× Ulight™-anti-cAMP solution were added to assay plate, followed by centrifugation and 60-minute incubation at room temperature. Plates were read on EnVision.
# [2] = molecular target: T2, HEK-293 cells expressing human recombinant A1 receptor (Homo sapiens, UniProt P30542); assay: cAMP assay (Assay 2), A1 receptor; format: cell-based; details: HEK-293 cells expressing A1 receptor
# T2 construct: expressed in transfected cells; host or cells: HEK-293
# T2 sequence (P30542 1-326): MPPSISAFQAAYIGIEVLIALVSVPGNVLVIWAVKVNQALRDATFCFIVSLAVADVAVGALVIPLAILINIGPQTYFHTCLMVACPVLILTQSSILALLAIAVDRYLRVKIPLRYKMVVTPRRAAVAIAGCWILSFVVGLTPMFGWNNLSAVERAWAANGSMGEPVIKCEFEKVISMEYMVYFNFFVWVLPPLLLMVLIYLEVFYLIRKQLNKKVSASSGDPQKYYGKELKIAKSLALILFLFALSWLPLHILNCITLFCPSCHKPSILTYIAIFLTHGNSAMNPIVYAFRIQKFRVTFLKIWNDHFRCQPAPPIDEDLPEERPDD
# Experimental: as §1, §2
# [3] = molecular target: T3, adenosine A1 (human) membrane (Homo sapiens, UniProt P30542); assay: A1 adenosine receptor radioligand binding assay ([3H] DPCPX); details: compound at 200 nM, radioligand [3H] DPCPX 1 nM
# T3 construct: purchased PerkinElmer ES-010-M400UA
# T3 sequence (P30542 1-326): T2 sequence (P30542 1-326)
# Experimental: A second A1 adenosine receptor radioligand binding assay protocol was used. The protocol used adenosine A1 (human) membrane (PerkinElmer ES-010-M400UA) at a concentration of 2.5 μg/well/100 μl and the radioligand [3H] DPCPX (Cat No. PerkinElmer-NET974250UC) at a final concentration of 1 nM. Testing compounds were tested at a final concentration of 200 nM. CGS-15943, the reference compound, was tested in an 8-point 4-fold serial dilution, starting at a top concentration of 1 μM. 1 μl of compounds/high control/low control was transferred to the assay plate according to a plate map, followed by 100 μl of membrane stocks and 100 μl of radioligand, in assay buffer (25 mM HEPES, 5 mM MgCl2, 1 mM CaCl2, 100 mM NaCl, pH 7.4). The plate was sealed and incubated at RT for 1 hour. Unifilter-96 GF/C filter plates (Perkin Elmer Cat #6005174) were soaked with 50 μl of 0.3% PEI per well for at least 0.5 hour at room temperature. When the binding assays were completed, the reaction mixtures were filtered through GF/C plates using Perkin Elmer Filtermate Harvester, and each plate washed 4 times with cold wash buffer (25 mM HEPES, 5 mM MgCl2, 1 mM CaCl2, 100 mM NaCl, pH 7.4). The filter plates were dried for 1 hour at 50 degrees. After drying, the bottom of the filter plate wells was sealed, 50 μl of Perkin Elmer Microscint 20 cocktail was added, and the top of the filter plate was sealed. ^3H trapped on the filter was counted using Perkin Elmer MicroBeta2 Reader. The data were analyzed with GraphPad Prism 5 to obtain binding IC50 values for the reference compound. The “Inhibition [% Control]” was calculated using the equation: % Inh =(1−Background subtracted Assay value/Background subtracted HC value)*100, where HC is high control.
# [4] = molecular target: T4, adenosine A2a (human) membrane (Homo sapiens, UniProt P29274); assay: A2A adenosine receptor radioligand binding assay ([3H] CGS-21680); details: radioligand [3H] CGS-21680 6 nM
# T4 construct: purchased PerkinElmer RBHA2AM400UA
# Experimental: A second A2A adenosine receptor radioligand binding assay protocol was used. The protocol used adenosine A2a (human) membrane (PerkinElmer RBHA2AM400UA) at a concentration of 5 μg/well/100 μl and the radioligand [3H] CGS-21680 (Cat No. PerkinElmer-NET1021250UC) at a final concentration of 6 nM. Testing compounds were diluted with DMSO to make 8-point 4-fold serial dilution, starting at 0.2 mM. CGS-15943 was the reference compound. 1 μl of compounds/high control/low control was transferred to the assay plate according to a plate map, followed by 100 μl of membrane stocks and 100 μl of radioligand, in assay buffer (50 mM Tris-HCl, 10 mM MgCl2, 1 mM EDTA, pH 7.4). The plate was sealed and incubated at RT for 2 hours. Unifilter-96 GF/C filter plates (Perkin Elmer Cat #6005174) were soaked with 50 μl of 0.3% PEI per well for at least 0.5 hour at room temperature. When the binding assays were completed, the reaction mixtures were filtered through GF/C plates using Perkin Elmer Filtermate Harvester, and each plate washed 4 times with cold wash buffer (50 mM Tris-HCl, 154 mM NaCl, pH 7.4). The filter plates were dried for 1 hour at 50 degrees. After drying, the bottom of the filter plate wells was sealed, 50 μl of Perkin Elmer Microscint 20 cocktail was added, and the top of the filter plate was sealed. ^3H trapped on the filter was counted using Perkin Elmer MicroBeta2 Reader. The data were analyzed with GraphPad Prism 5 to obtain binding IC50 values. The “Inhibition [% Control]” was calculated using the equation: % Inh=(1−Background subtracted Assay value/Background subtracted HC value)*100, where HC is high control.
# T4 sequence (P29274 whole entry): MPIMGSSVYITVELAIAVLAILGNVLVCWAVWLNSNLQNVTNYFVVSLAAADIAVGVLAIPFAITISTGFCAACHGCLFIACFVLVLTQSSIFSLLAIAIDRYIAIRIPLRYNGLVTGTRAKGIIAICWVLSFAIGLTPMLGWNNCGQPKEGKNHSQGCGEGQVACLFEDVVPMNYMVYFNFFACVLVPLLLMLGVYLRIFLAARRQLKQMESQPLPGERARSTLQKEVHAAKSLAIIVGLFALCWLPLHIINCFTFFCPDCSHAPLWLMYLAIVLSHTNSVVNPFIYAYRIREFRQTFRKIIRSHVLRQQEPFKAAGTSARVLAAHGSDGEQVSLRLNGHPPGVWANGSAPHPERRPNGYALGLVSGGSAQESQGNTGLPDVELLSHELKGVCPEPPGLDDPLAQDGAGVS
# T1 sequence (P29274 whole entry): as above
Compound,IC50 [1] [nM],IC50 [2] [nM],inhibition at 0.2 µM [3] [%],IC50 [4] [nM]
"CC(C)(O)c1cccc(COc2nc(-c3cc(Cl)c4ncccc4c3)c(-c3ccc(F)cc3)nc2N)n1 [Compound No. 58, 2-(6-(((3-amino-6-(8-chloroquinolin-6-yl)-5-(4-fluorophenyl)pyrazin-2-yl)oxy)methyl)pyridin-2-yl)propan-2-ol]",18.4,92.7,85,
"Cc1ccn(-c2nc(N)c(OCc3cccc(C(C)(C)O)n3)nc2-c2cc(Cl)c3ncccc3c2)n1 [compound 1, 2-(6-(((3-amino-6-(8-chloroquinolin-6-yl)-5-(3-methyl-1H-pyrazol-1-yl)pyrazin-2-yl)oxy)methyl)pyridin-2-yl)propan-2-ol]",164,,,
"CC(C)(O)c1cccc(COc2nc(-c3ccc4ncccc4c3)c(-c3ccccc3)nc2N)n1 [compound 2, 2-(6-(((3-amino-5-phenyl-6-(quinolin-6-yl)pyrazin-2-yl)oxy)methyl)pyridin-2-yl)propan-2-ol]",15.1,32.3,,
"CC(C)(O)c1cccc(Cn2cc(-c3nc(-c4ccc5ncccc5c4)c(-c4ccccc4)nc3N)nn2)n1 [compound 102, 2-(6-((4-(3-amino-5-phenyl-6-(quinolin-6-yl)pyrazin-2-yl)-1H-1,2,3-triazol-1-yl)methyl)pyridin-2-yl)propan-2-ol]",19.6,8.7,97,
"C[C@H](c1ccccn1)N(C)C(=O)c1nc(-c2ccc3ncccc3c2)c(-c2ccccc2)nc1N [compound 119, (R)-3-amino-N-methyl-5-phenyl-N-(1-(pyridin-2-yl)ethyl)-6-(quinolin-6-yl)pyrazine-2-carboxamide]",,,49,105
"C[C@@H](c1ccccn1)N(C)C(=O)c1nc(-c2ccc3ncccc3c2)c(-c2ccccc2)nc1N [compound 120, (S)-3-amino-N-methyl-5-phenyl-N-(1-(pyridin-2-yl)ethyl)-6-(quinolin-6-yl)pyrazine-2-carboxamide]",,,90,65
"CC(NC(=O)c1nc(-c2ccc3ncccc3c2)c(-c2ccccc2)nc1N)c1ccccc1 (stereo not drawn) [compound 121, 3-amino-5-phenyl-N-(1-phenylethyl)-6-(quinolin-6-yl)pyrazine-2-carboxamide]",,,68,2.1
